124 compounds from a melting point compilation (Tetko et al.) can be followed below.

As usually defined, the melting point is the temperature of the solid-liquid transition.

`COc1ccc(-c2nnc(N)[nH]2)c(OC)c1` yielded a melting point of 214 to 216 °C.

Turning to `N#Cc1cc2c([nH]c1=O)CCCC2`, the melting point lay in the range of 246 to 248 °C. The same measure for `Cc1sc2nc(CCl)nc(Cl)c2c1C`: 142 to 144 °C; for `COc1ccc(-c2nn(-c3ccccc3)cc2CCl)cc1`: 89 to 91 °C. As for `CS(=O)(=O)c1ccc(F)c(N)c1`, the figure is 69 to 71 °C; as for `O=C(O)CCc1ccc(C(F)(F)F)cc1`, 106 to 110 °C.

Turning to `Nc1ccccc1C(=O)NCCc1ccccc1`, the melting point is 110 to 112 °C.

The compound `Clc1cc(NCC2CC2)ncn1` had a melting point of 98 to 100 °C. `CS(=O)(=O)Nc1ccccc1F` came in with a melting point of 75 to 77 °C. Compound `C#Cc1cccc(NC(N)=O)c1` gave a melting point of 153 to 155 °C. `CC(O)C(NS(=O)(=O)c1cccs1)C(=O)O` (centres undefined) returned a melting point of 183 to 185 °C. As for `O=C(CN=C=S)NC1CC1`, the figure is 169 to 171 °C; as for `CC1(C)CCC(CC(=O)O)CC1`, 45 to 47 °C; as for `CN(CCOc1ccccc1F)C(=O)CCl`, 68 to 70 °C. As for `Nc1ccc(N2CCSCC2)c(C(=O)O)c1`, the figure is 263 to 265 °C. The same measure for `CC(=O)c1ccc(Oc2ccc(Br)cc2)cc1`: 79 to 81 °C; for `Cc1cn2c(C=O)c(C)nc2s1`: 153 to 155 °C; for `O=S(=O)(Cl)Cc1ccc2ccccc2c1`: 97 to 99 °C. `Cc1n[nH]c2ncc(N)cc12` had a melting point of 186 to 188 °C. The same measure for `CC(C)(NC(=O)Nc1ccccc1)C(=O)O`: 165 to 167 °C. As for `Nc1cc(Cl)c([N+](=O)[O-])cc1OCc1ccccc1`, the melting point was 135 to 137 °C.

`COC(=O)c1c[nH]nn1` displayed a melting point of 139 to 141 °C. As for `Cc1ccc(NC(=O)CCl)cc1S(=O)(=O)N1CCCCCC1`, the figure is 74 to 76 °C; as for `Cc1ccc(-c2cnc(-c3ccccc3C(=O)O)o2)cc1`, 219 to 221 °C; as for `O=C(O)c1ccc(Cl)cc1I`, 157 to 159 °C. As for `CCN1CCN(c2ccccc2N)CC1`, the figure is 39 to 43 °C; as for `c1ccc2c(c1)C1CCC2N1`, 92 to 94 °C; as for `CCC(=O)CNC(=O)CCl`, 81 to 83 °C. The same measure for `Nc1ccc(CC2CC(=O)NC2=O)cc1` (centres undefined): 138 to 140 °C. On to `Cn1cc(N2CCC(Br)C2=O)cn1` (centres undefined), for which the melting point fell in the range of 136 to 138 °C. The same measure for `CCOC(=O)Nc1cccc(C(=O)O)c1`: 196 to 198 °C; for `O=C(O)Cc1ccn(-c2ccc(F)cc2)n1`: 97 to 99 °C; for `O=S(=O)(Cl)c1sc(Cl)nc1Cl`: 57 to 59 °C. The same measure for `Cc1ccc(-c2cnnc(N)n2)o1`: 274 to 276 °C; for `COc1ccc(NC(=O)OC(C)(C)C)c(N)c1`: 116 to 118 °C. The same measure for `O=C(CCl)Nc1cc(C(F)(F)F)ccc1Cl`: 71 to 73 °C.

As for `CN1C(=O)/C(=N\NC(=O)c2cccnc2)c2ccccc21`, the melting point fell in the range of 195 to 197 °C. The same measure for `Cc1ccc(C(N)=O)n1C`: 152 to 154 °C; for `NC(=O)C1CNc2ccccc2C1` (centres undefined): 121 to 123 °C. As for `NC(=O)C1CC2CCCCC2N1` (centres undefined), the figure is 123 to 125 °C; as for `O=C1CCCc2sccc21`, 38 to 40 °C.

`CC(C)(C)c1ccc(CCCC(=O)O)cc1` registered a melting point of 53 to 55 °C.

As for `CN1CCN(C(=O)CC#N)CC1`, the melting point lay in the range of 118 to 120 °C.

For the compound `CC1CC1C(=O)NN` (centres undefined), the melting point was 85 to 87 °C. `Cc1cccc(CSCC(=O)O)c1` gave a melting point of 74 to 76 °C.

In the case of `Nc1cc(N2CCCS2(=O)=O)ccc1O`, the melting point is 134 to 136 °C. The same measure for `COCC(=O)Nc1ccc(O)cc1`: 139 to 141 °C. The same measure for `Cc1ccc2nc(-c3cccc(C)c3O)[nH]c2c1`: 244 to 246 °C. As for `CC(C)(C)C(=O)N1CCc2cc(C(=O)O)ccc21`, the figure is 195 to 197 °C; as for `CC(C)C(O)(C(=O)O)c1ccccc1` (centres undefined), 148 to 150 °C; as for `O=C(O)c1ccc(S(=O)(=O)Cl)c(Cl)c1`, 199 to 201 °C. In turn, `Cn1c(NN)nnc1-c1ccccc1` registered a melting point of 147 to 149 °C.

Turning to `NC(=O)c1ccc(Cl)cc1O`, the melting point lay within 188 to 190 °C. The same measure for `N#Cc1ccccc1NC(=O)CCCC(=O)O`: 139 to 141 °C; for `O=C1NC(=O)C2(CCOCC2)N1`: 264 to 266 °C; for `CC(CC#N)Sc1ccccc1NC(=O)CCl` (centres undefined): 89 to 91 °C.

On to `OCC1CCCN(c2cc(Cl)ncn2)C1` (centres undefined), for which the melting point fell in the range of 111 to 113 °C. `CC(C)(C)c1noc(-c2cc(Cl)ccc2N)n1` returned a melting point of 132 to 134 °C.

In turn, `N#Cc1ccc(S(=O)(=O)Cl)c(C(F)(F)F)c1` returned a melting point of 70 to 72 °C. The same measure for `COc1nc(N)n[nH]1`: 165 to 167 °C; for `NNc1ncc(Cl)cc1Cl`: 179 to 181 °C; for `O=C(O)CCC(=O)NCC(=O)c1ccc(F)cc1F`: 173 to 175 °C. Regarding `O=C(O)CCCOc1cccc(Cl)c1Cl`, the melting point lay within 121 to 123 °C. Compound `COc1ccccc1CC(C)CC(=O)O` (centres undefined) had a melting point of 49 to 51 °C. As for `COc1ccc(C(N)=O)c(O)c1`, the figure is 145 to 147 °C.

`CC(=O)c1ccc(N2CCOC2=O)cc1`: the melting point is 149 to 151 °C.

Regarding `NC(c1ccncc1)c1ccc(F)cc1` (centres undefined), the melting point was 63 to 65 °C.

`CC(C)CNC(=O)c1ccc(N)cc1Cl` came in with a melting point of 100 to 102 °C. The same measure for `O=C(O)c1ccc(Cl)c(S(=O)(=O)NCc2ccco2)c1`: 133 to 135 °C. In turn, `COc1ccc(CCC(=O)Nc2ccccc2C(=O)O)cc1` registered a melting point of 159 to 161 °C. As for `O=C(O)c1ccc(OCC(F)F)nc1`, the figure is 158 to 160 °C; as for `NOC1CCCCO1` (centres undefined), 34 to 37 °C; as for `Cc1cc(Cl)c([N+](=O)[O-])cc1N`, 118 to 120 °C.

In turn, `Cc1cc(-n2c(C)c[nH]c2=O)no1` came in with a melting point of 134 to 136 °C.

In the case of `O=S(=O)(Cl)c1ccc(OCC(F)(F)F)cc1`, the melting point fell in the range of 55 to 57 °C. The same measure for `O=C(CCl)NCC(=O)c1cccs1`: 133 to 135 °C; for `O=C(O)Cc1c[nH]c2ccc(F)cc12`: 139 to 141 °C.

Consider `COc1ccccc1-c1cccc(N)c1`, for which the melting point lay within 66 to 68 °C. As for `O=S(=O)(Cl)c1cnn(Cc2ccccc2)c1`, the figure is 57 to 59 °C; as for `COc1ccc(NS(=O)(=O)c2cccs2)cc1`, 120 to 122 °C. As for `CCN(CC)C(=O)Cn1cccc(C(=O)O)c1=O`, the figure is 114 to 116 °C; as for `CCN1CCN(S(=O)(=O)c2cccc(N)c2)CC1`, 94 to 96 °C. The same measure for `CCOC(=O)C(=O)c1c(C)[nH]c2ccccc12`: 127 to 129 °C. Take `Cn1nnc2cc(C(=O)O)cnc21`: the melting point lay within 229 to 231 °C. `Fc1ccc2c(c1)NCCC2` came in with a melting point of 46 to 48 °C.

For `CCOc1ccc(Cl)cc1C(C)=O`, the melting point was in the range of 79 to 81 °C. On to `CNC1(c2ccccc2Cl)CCCC(=Cc2cccs2)C1=O` (centres undefined), for which the melting point lay in the range of 129 to 131 °C. As for `Cc1nn(-c2ccccc2)c(CCl)c1C#N`, the figure is 130 to 132 °C; as for `CC(C)(C)c1ccc(Cl)nn1`, 83 to 85 °C. On to `Cc1ccc(N)cc1NC(=O)c1ccccc1I`, for which the melting point fell in the range of 190 to 192 °C. As for `O=C(O)c1ccc(CN2CCC(CO)CC2)cc1`, the figure is 219 to 221 °C; as for `NC(=S)CC(N)=S`, 202 to 204 °C; as for `CCOC(=O)/C(C#N)=C\Nc1ccc(F)cc1Cl`, 168 to 170 °C. As for `Cc1ccc(C(=O)N2CC(C)CC(C)C2)cc1N` (centres undefined), the figure is 154 to 156 °C; as for `O=C(O)CCCCCNC(=O)NC1CCCCC1`, 138 to 140 °C; as for `N#Cc1ccc(-c2nc(CCl)co2)cc1`, 132 to 134 °C.

Compound `O=C(O)c1ccnc(OCc2ccccc2)c1` showed a melting point of 171 to 173 °C. `COc1ccc(C(=O)Nc2nc(C)cs2)cc1N` returned a melting point of 164 to 166 °C. Regarding `O=C(O)c1ccc(NS(=O)(=O)c2ccc(Cl)c(Cl)c2)cc1`, the melting point fell in the range of 254 to 256 °C. As for `O=[N+]([O-])c1cccc(C(F)F)c1Br`, the figure is 29 to 31 °C; as for `Cc1n[nH]c(-c2ccccc2N)n1`, 153 to 155 °C; as for `CC1CCCC1(N)C(N)=O` (centres undefined), 64 to 66 °C. As for `CC(=O)Cc1ccc(-c2ccccc2)cc1`, the figure is 49 to 51 °C.

Compound `Cc1ccc(S(=O)(=O)OCc2nc3ccccc3s2)cc1` showed a melting point of 108 to 110 °C. As for `O=C(O)CCOc1ccc2ccccc2c1`, the figure is 66 to 68 °C. As for `Cc1ccccc1OCC(=O)NN`, the figure is 120 to 122 °C; as for `NC(=O)C1CCCCS1` (centres undefined), 164 to 166 °C; as for `NC(CCN1CCN(Cc2ccccc2)CC1)=NO`, 111 to 113 °C. The same measure for `CN1CCN(c2ccc(C#N)cn2)CC1`: 67 to 69 °C; for `CNCC(=O)N1CCN(C(=O)OC(C)(C)C)CC1`: 64 to 66 °C.

Compound `Cc1ccc(O)c(C(=O)Nc2ccncc2)c1` registered a melting point of 249 to 251 °C. `O=C(O)c1ncccc1OCC(F)(F)F` returned a melting point of 116 to 118 °C. As for `O=C(C(=O)c1ccccn1)c1ccccn1`, the melting point lay within 154 to 156 °C. With `Cc1ccc(-c2cn[nH]c2)cc1`, the melting point lay within 217 to 219 °C. The same measure for `Nc1ccc(-c2nc3ccccc3[nH]2)cc1`: 218 to 222 °C; for `COC(=O)/C=C/c1ccc(OC)c(S(=O)(=O)Cl)c1`: 115 to 117 °C; for `COc1ccc(N)cc1C`: 31 to 33 °C. The same measure for `Cc1ccc(OCc2nc(C(=O)NC3=NCCS3)cs2)cc1`: 200 to 202 °C. The compound `Cc1nc(-c2cc3c(s2)CCNC3)cs1` returned a melting point of 111 to 113 °C. As for `N#Cc1ccnc(OCc2ccccc2)c1`, the figure is 74 to 76 °C; as for `CC(NC(=O)CCl)c1ccccc1` (centres undefined), 75 to 77 °C.

The compound `CN(C)C(=O)c1cccc(O)c1` yielded a melting point of 126 to 128 °C.

In turn, `Nc1nnc(-c2ccccc2Cl)[nH]1` came in with a melting point of 218 to 220 °C. As for `Nc1ccnn1Cc1cccnc1`, the figure is 86 to 88 °C.
